Test system: 84 genes related to inflammatory and autoimmune processes
Experiment: Mouse Inflammatory Response and Autoimmunity PCR Array, whole brain
Format: in vivo
Details: brain 24 h
Description: Frozen, pulverized whole brain tissue was processed for RNA extraction from a separate cohort of treated and untreated injured animals on days 1 post-injury(CN-105, n = 4; vehicle, n = 3; Control(sham-operated), n = 3). Total RNA was extracted from frozen, pulverized whole brain tissue using RNeasy Lipid Tissue Mini Kit(Qiagen, Valencia, CA). RNA quantity and quality was assessed with the NanoDrop ND-1000 spectrophotometer(NanoDrop Technologies, Inc., Wilmington, DE) and by agarose gel electrophoresis. Only samples with a 260/280 ratio between 1.9–2.1, and a 260/230 ratio greater than 2.0, were further processed. First strand complementary DNA(cDNA) was generated from 2 μg total RNA using the RT[2] First strand kit(SABiosciences, Frederick, MD.)
Gene expression was measured using the Mouse Inflammatory Response and Autoimmunity PCR Array(SABiosciences, Frederick, MD), which profiles the expression of 84 genes related to inflammatory and autoimmune processes. RT-PCR was performed according to manufacturer’s instructions Quality of the cDNA and PCR efficiency was verified by housekeeping genes and RT-PCR controls included in the PCR Array.
Raw RT-PCR data were analyzed using the Web-Based PCR Array Data Analysis software(SABiosciences). ΔCt values and ΔΔCt - based fold-change were calculated from raw threshold cycle data, using beta-actin and glyceraldehyde 3-phosphate dehydrogenase(GAPDH) as internal standards for normalization. Fold changes were then normalized against sham-operated controls.

Ac-VSRRR-amide [CN-105]
Il22ra2 ΔCt value, S-CN-105 (sham + CN-105 0.05 mg/kg iv): 1.1E − 04
Il22 ΔCt value, S-CN-105 (sham + CN-105 0.05 mg/kg iv): 4.7E − 04
Il23a ΔCt value, S-CN-105 (sham + CN-105 0.05 mg/kg iv): 8.0E − 05
Il23r ΔCt value, S-CN-105 (sham + CN-105 0.05 mg/kg iv): 1.5E − 04
Itgb2 ΔCt value, S-CN-105 (sham + CN-105 0.05 mg/kg iv): 1.3E − 02
Kng1 ΔCt value, S-CN-105 (sham + CN-105 0.05 mg/kg iv): 1.4E − 05
Lta ΔCt value, S-CN-105 (sham + CN-105 0.05 mg/kg iv): 2.6E − 04
Ltb ΔCt value, S-CN-105 (sham + CN-105 0.05 mg/kg iv): 1.0E − 03
Ly96 ΔCt value, S-CN-105 (sham + CN-105 0.05 mg/kg iv): 7.2E − 03
Myd88 ΔCt value, S-CN-105 (sham + CN-105 0.05 mg/kg iv): 1.1E − 03
Nfatc3 ΔCt value, S-CN-105 (sham + CN-105 0.05 mg/kg iv): 2.1E − 02
Nfkb1 ΔCt value, S-CN-105 (sham + CN-105 0.05 mg/kg iv): 3.1E − 02
Nos2 ΔCt value, S-CN-105 (sham + CN-105 0.05 mg/kg iv): 8.9E − 05
Nr3c1 ΔCt value, S-CN-105 (sham + CN-105 0.05 mg/kg iv): 4.0E − 01
Ripk2 ΔCt value, S-CN-105 (sham + CN-105 0.05 mg/kg iv): 1.1E − 02
Tirap ΔCt value, S-CN-105 (sham + CN-105 0.05 mg/kg iv): 7.8E − 03
Tlr1 ΔCt value, S-CN-105 (sham + CN-105 0.05 mg/kg iv): 1.0E − 03
Tlr2 ΔCt value, S-CN-105 (sham + CN-105 0.05 mg/kg iv): 1.3E − 03
Tlr3 ΔCt value, S-CN-105 (sham + CN-105 0.05 mg/kg iv): 2.3E − 02
Tlr4 ΔCt value, S-CN-105 (sham + CN-105 0.05 mg/kg iv): 3.5E − 03
Tlr5 ΔCt value, S-CN-105 (sham + CN-105 0.05 mg/kg iv): 6.3E − 04
Tlr6 ΔCt value, S-CN-105 (sham + CN-105 0.05 mg/kg iv): 6.2E − 04
Tlr7 ΔCt value, S-CN-105 (sham + CN-105 0.05 mg/kg iv): 2.6E − 03
Tnf ΔCt value, S-CN-105 (sham + CN-105 0.05 mg/kg iv): 3.5E − 05
Tnfsf14 ΔCt value, S-CN-105 (sham + CN-105 0.05 mg/kg iv): 1.3E − 04
Tollip ΔCt value, S-CN-105 (sham + CN-105 0.05 mg/kg iv): 3.2E − 01
Bcl6 fold change S-CN-105/S-v (sham CN-105 vs sham vehicle): 1.3
C3ar1 fold change S-CN-105/S-v (sham CN-105 vs sham vehicle): 1.2
C3 fold change S-CN-105/S-v (sham CN-105 vs sham vehicle): 1.7
C4b fold change S-CN-105/S-v (sham CN-105 vs sham vehicle): 2.0
Ccl2 fold change S-CN-105/S-v (sham CN-105 vs sham vehicle): 1.4
Ccl3 fold change S-CN-105/S-v (sham CN-105 vs sham vehicle): 1.6
Ccl4 fold change S-CN-105/S-v (sham CN-105 vs sham vehicle): 1.0
Ccl5 fold change S-CN-105/S-v (sham CN-105 vs sham vehicle): 1.2
Ccl7 fold change S-CN-105/S-v (sham CN-105 vs sham vehicle): 1.3
Ccl8 fold change S-CN-105/S-v (sham CN-105 vs sham vehicle): 2.8
Ccl11 fold change S-CN-105/S-v (sham CN-105 vs sham vehicle): 3.2
Ccl12 fold change S-CN-105/S-v (sham CN-105 vs sham vehicle): 1.8
Ccl17 fold change S-CN-105/S-v (sham CN-105 vs sham vehicle): 1.6
Ccl19 fold change S-CN-105/S-v (sham CN-105 vs sham vehicle): 1.5
Ccl20 fold change S-CN-105/S-v (sham CN-105 vs sham vehicle): 4.4
Ccl22 fold change S-CN-105/S-v (sham CN-105 vs sham vehicle): 3.1
Ccl24 fold change S-CN-105/S-v (sham CN-105 vs sham vehicle): 3.0
Ccl25 fold change S-CN-105/S-v (sham CN-105 vs sham vehicle): 2.6
Ccr1 fold change S-CN-105/S-v (sham CN-105 vs sham vehicle): −1.1
Ccr2 fold change S-CN-105/S-v (sham CN-105 vs sham vehicle): 2.1
Ccr3 fold change S-CN-105/S-v (sham CN-105 vs sham vehicle): 1.2
Ccr4 fold change S-CN-105/S-v (sham CN-105 vs sham vehicle): 1.5
Ccr7 fold change S-CN-105/S-v (sham CN-105 vs sham vehicle): 1.8
Cd40 fold change S-CN-105/S-v (sham CN-105 vs sham vehicle): 1.5
Cebpb fold change S-CN-105/S-v (sham CN-105 vs sham vehicle): 1.6
Csf1 fold change S-CN-105/S-v (sham CN-105 vs sham vehicle): 1.7
Cxcl1 fold change S-CN-105/S-v (sham CN-105 vs sham vehicle): 2.7
Cxcl2 fold change S-CN-105/S-v (sham CN-105 vs sham vehicle): 4.2
Cxcl3 fold change S-CN-105/S-v (sham CN-105 vs sham vehicle): 0.8
Cxcl5 fold change S-CN-105/S-v (sham CN-105 vs sham vehicle): 1.7
Cxcl9 fold change S-CN-105/S-v (sham CN-105 vs sham vehicle): 1.5
Cxcl10 fold change S-CN-105/S-v (sham CN-105 vs sham vehicle): 2.1
Cxcl11 fold change S-CN-105/S-v (sham CN-105 vs sham vehicle): 3.8
Cxcr4 fold change S-CN-105/S-v (sham CN-105 vs sham vehicle): 1.5
Fasl fold change S-CN-105/S-v (sham CN-105 vs sham vehicle): 0.9
Flt3l fold change S-CN-105/S-v (sham CN-105 vs sham vehicle): 1.5
Fos fold change S-CN-105/S-v (sham CN-105 vs sham vehicle): 1.6
Hdac4 fold change S-CN-105/S-v (sham CN-105 vs sham vehicle): 1.5
Ifng fold change S-CN-105/S-v (sham CN-105 vs sham vehicle): 0.8
Il1a fold change S-CN-105/S-v (sham CN-105 vs sham vehicle): 1.4
Il1b fold change S-CN-105/S-v (sham CN-105 vs sham vehicle): 1.8
Il1r1 fold change S-CN-105/S-v (sham CN-105 vs sham vehicle): 2.6
Il1rap fold change S-CN-105/S-v (sham CN-105 vs sham vehicle): 1.5
Il6 fold change S-CN-105/S-v (sham CN-105 vs sham vehicle): −1.3
Il6ra fold change S-CN-105/S-v (sham CN-105 vs sham vehicle): 1.5
Il7 fold change S-CN-105/S-v (sham CN-105 vs sham vehicle): 3.1
Il8rb fold change S-CN-105/S-v (sham CN-105 vs sham vehicle): 7.3
Il10 fold change S-CN-105/S-v (sham CN-105 vs sham vehicle): 5.7
Il10rb fold change S-CN-105/S-v (sham CN-105 vs sham vehicle): 2.0
Il18 fold change S-CN-105/S-v (sham CN-105 vs sham vehicle): 2.0
Il22 fold change S-CN-105/S-v (sham CN-105 vs sham vehicle): 10.8
Il22ra2 fold change S-CN-105/S-v (sham CN-105 vs sham vehicle): 4.8
Il23a fold change S-CN-105/S-v (sham CN-105 vs sham vehicle): 3.0
Il23r fold change S-CN-105/S-v (sham CN-105 vs sham vehicle): 1.4
Itgb2 fold change S-CN-105/S-v (sham CN-105 vs sham vehicle): 2.5
Lta fold change S-CN-105/S-v (sham CN-105 vs sham vehicle): 2.3
Ltb fold change S-CN-105/S-v (sham CN-105 vs sham vehicle): 2.0
Ly96 fold change S-CN-105/S-v (sham CN-105 vs sham vehicle): 1.9
Myd88 fold change S-CN-105/S-v (sham CN-105 vs sham vehicle): 1.5
Nfatc3 fold change S-CN-105/S-v (sham CN-105 vs sham vehicle): 2.4
Nfkb1 fold change S-CN-105/S-v (sham CN-105 vs sham vehicle): 1.8
Nos2 fold change S-CN-105/S-v (sham CN-105 vs sham vehicle): 1.0
Nr3c1 fold change S-CN-105/S-v (sham CN-105 vs sham vehicle): 2.0
Ripk2 fold change S-CN-105/S-v (sham CN-105 vs sham vehicle): 1.5
Tirap fold change S-CN-105/S-v (sham CN-105 vs sham vehicle): 2.1
Tlr1 fold change S-CN-105/S-v (sham CN-105 vs sham vehicle): 2.2
Tlr2 fold change S-CN-105/S-v (sham CN-105 vs sham vehicle): 1.4
Tlr3 fold change S-CN-105/S-v (sham CN-105 vs sham vehicle): 1.6
Tlr4 fold change S-CN-105/S-v (sham CN-105 vs sham vehicle): 1.1
Tlr5 fold change S-CN-105/S-v (sham CN-105 vs sham vehicle): 0.9
Tlr6 fold change S-CN-105/S-v (sham CN-105 vs sham vehicle): 1.3
Tlr7 fold change S-CN-105/S-v (sham CN-105 vs sham vehicle): 1.6
Tnf fold change S-CN-105/S-v (sham CN-105 vs sham vehicle): 1.3
Tnfsf14 fold change S-CN-105/S-v (sham CN-105 vs sham vehicle): 5.2
Tollip fold change S-CN-105/S-v (sham CN-105 vs sham vehicle): 1.9
downregulation of gene expression, sham CN-105 vs sham vehicle (sham mice, 0.05 mg/kg): No downregulation of gene expression was observed

From PMC5399447, “Neuroprotective pentapeptide CN-105 is associated with reduced sterile inflammation and improved functional outcomes in a traumatic brain injury murine model” (Scientific Reports, 2017)
